6 compounds from patent EP0486749A1, “Triarylmethane compounds and pressure sensitive recording material” (HODOGAYA CHEMICAL CO., LTD., priority 1991, dated 1992) can be followed below.

Each structure is given as a SMILES string.

The nature of data set [1]: Solubility of the color former in oil (KMC-113). As to conditions: in KMC-113 at 50°C. Format: physicochemical. An excerpt:
To examine the solubility of a color former in oil, the solubility of benzoylleucomethylene blue in KMC-113 (product of Kureha Chemical Industries Co., Ltd.) as a typical solvent commonly employed, was investigated.
To examine the solubility in oil of the triarylmethane compounds of the present invention, the solubility in KMC-113 (product of Kureha Chemical Industries Co., Ltd.) as a typical solvent was examined.

Data set [2] can be described thus: Color formation on silica gel (TLC) and light resistance of the formed color. As to conditions: for light resistance: color formed on silica gel TLC. Here is the method: The color in the Table is the color formed on silica gel.
To a dilute hydrochloric acid aqueous solution prepared by diluting 25 parts of 35% hydrochloric acid with 130 parts of water, 30 parts of 4,4'-bisdimethylaminobenzhydrol and 22 parts of methyl 3-dimethylaminobenzoate were dissolved and reacted at a temperature of from 50 to 60°C for 5 hours. Then, 10 parts of active carbon was added thereto, and the mixture was thoroughly mixed. After removing active carbon by filtration, 150 parts of 10% sodium hydroxide and 100 parts of toluene were added to the filtrate and thoroughly mixed. The toluene layer was separated, then washed with 100 parts of water and separated. Then, this toluene layer was thoroughly dried over anhydrous sodium salfate. Then, this toluene layer was concentrated, and 100 parts of methanol was added to the residue thereby obtained. Precipitated crystals were collected by filtration and recrystallized from a solvent mixture comprising 50 parts of methanol and 50 parts of acetone to obtain 35 parts of bis((4-dimethylamino)phenyl)-(2-methoxycarbonyl-4-dimethylaminophenyl)methane.

Consider `COC(=O)c1cc(N(C)C)ccc1C(c1ccc(N(C)C)cc1)c1ccc(N(C)C)cc1` [Preparation Example 1, bis((4-dimethylamino)phenyl)-(2-methoxycarbonyl-4-dimethylaminophenyl)methane], for which the solubility entry in data set [1] is given as “at least 10%”. Further, in data set [2], the light resistance entry is on record as “excellent” and the “color formed on silica gel TLC” value is “gradually formed a clear blue color”.

Consider `CC(C)OC(=O)c1cc(N(C)C)ccc1C(c1ccc(N(C)C)cc1)c1ccc(N(C)C)cc1` [Preparation Example 2, bis((4-dimethylamino)phenyl)-(2-isopropoxycarbonyl-4-dimethylaminophenyl)methane], for which, in data set [1], the solubility entry is on record as “at least 10%”. Besides, in data set [2], the light resistance result is on record as “excellent” and the “color formed on silica gel TLC” value is listed as “gradually formed a clear blue color”.

Regarding `CCCCOC(=O)c1cc(N(C)C)ccc1C(c1ccc(N(C)C)cc1)c1ccc(N(C)C)cc1` [Preparation Example 3, bis((4-dimethylamino)phenyl)-(2-n-butoxycarbonyl-4-dimethylaminophenyl)methane], in data set [1], the solubility entry is reported as “at least 10%”. Moreover, in data set [2], the light resistance result is given as “excellent” and the “color formed on silica gel TLC” value is “gradually formed a clear blue color”.

For the compound `COC(=O)c1cc(N(C)C)ccc1C(c1ccc(N(C)C)cc1C)c1ccc(N(C)C)cc1C` [Preparation Example 4, bis((2-methyl-4-dimethylamino)phenyl)-(2-methoxycarbonyl-4-dimethylaminophenyl)methane], in data set [2], the light resistance result is reported as “excellent” and the “color formed on silica gel TLC” value is “gradually formed a clear blue color”.

On to `CCOC(=O)c1cc(N(C)C)ccc1C(c1ccc(N(C)C)cc1C)c1ccc(N(C)C)cc1C` [Preparation Example 5, bis((2-methyl-4-dimethylamino)phenyl)-(2-ethoxycarbonyl-4-dimethylaminophenyl)methane], for which, in data set [2], the light resistance result was “excellent” and the “color formed on silica gel TLC” value is “gradually formed a clear blue color”.

Compound `CN(C)c1ccc2c(c1)Sc1cc(N(C)C)ccc1N2C(=O)c1ccccc1` [benzoylleucomethylene blue, reference compound] came in with a solubility in data set [1] of 2.5%.
